Results: the supplement of paper PMC10307832

Columns and labels:
Experiment in all cases: relative viability (nuclei count vs DMSO), 5 days (fraction); higher = more cells survive
Carboplatin + Phenformin = compound: C1CC(C1)(C(=O)O)C(=O)O.[NH2-].[NH2-].[Pt+2] [Carboplatin] + N=C(N)NC(=N)NCCc1ccccc1 [Phenformin] (partner 250 µM)
In short: (§1)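 A single step with final 0.05% Triton X-100, 1% formaldehyde and 1 ug/ml Hoechst fixed the cells and stained nuclei 5 days after treatment. Lung cancer cell lines in 1536-well plates had been treated by pin tool the day after seeding with one drug alone or a fixed anchor-drug dose plus five library-drug doses (not always all listed) in √10 steps, and nuclei were counted on 4× images. Relative viability is the ratio of nuclei in treated wells to nuclei in vehicle wells, taken as the median of duplicate plates.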

GSK126 + Crizotinib = compound: CC[C@H](C)N1C=C(C2=C(C=C(C=C21)C3=CN=C(C=C3)N4CCNCC4)C(=O)NCC5=C(C=C(NC5=O)C)C)C [GSK126] + C[C@@H](Oc1cc(-c2cnn(C3CCNCC3)c2)cnc1N)c1c(Cl)ccc(F)c1Cl [Crizotinib] (partner 1 µM)
In short: as §1

MLN4924 + Lapatinib = compound: NS(=O)(=O)OC[C@@H]1C[C@@H](n2ccc3c(N[C@H]4CCc5ccccc54)ncnc32)C[C@@H]1O [MLN4924] + CS(=O)(=O)CCNCc1ccc(-c2ccc3ncnc(Nc4ccc(OCc5cccc(F)c5)c(Cl)c4)c3c2)o1 [Lapatinib] (partner 2 µM)
In short: as §1

GSK126 + Luminespib = compound: CC[C@H](C)N1C=C(C2=C(C=C(C=C21)C3=CN=C(C=C3)N4CCNCC4)C(=O)NCC5=C(C=C(NC5=O)C)C)C [GSK126] + CCNC(=O)c1noc(-c2cc(C(C)C)c(O)cc2O)c1-c1ccc(CN2CCOCC2)cc1 [Luminespib] (partner 0.01 µM)
In short: as §1

| Cell Line | relative viability (Carboplatin + Phenformin; first compound 0.08 µM) | relative viability (Carboplatin + Phenformin; first compound 0.253 µM) | relative viability (Carboplatin + Phenformin; first compound 0.8 µM) | relative viability (Carboplatin + Phenformin; first compound 2.53 µM) | relative viability (Carboplatin + Phenformin; first compound 8 µM) | relative viability (GSK126 + Crizotinib; first compound 0.08 µM) | relative viability (GSK126 + Crizotinib; first compound 0.253 µM) | relative viability (GSK126 + Crizotinib; first compound 0.8 µM) | relative viability (GSK126 + Crizotinib; first compound 2.53 µM) | relative viability (GSK126 + Crizotinib; first compound 8 µM) | relative viability (MLN4924 + Lapatinib; first compound 0.04 µM) | relative viability (MLN4924 + Lapatinib; first compound 0.1265 µM) | relative viability (MLN4924 + Lapatinib; first compound 0.4 µM) | relative viability (MLN4924 + Lapatinib; first compound 1.265 µM) | relative viability (MLN4924 + Lapatinib; first compound 4 µM) | relative viability (GSK126 + Luminespib; first compound 0.08 µM) | relative viability (GSK126 + Luminespib; first compound 0.253 µM) | relative viability (GSK126 + Luminespib; first compound 0.8 µM) | relative viability (GSK126 + Luminespib; first compound 2.53 µM) | relative viability (GSK126 + Luminespib; first compound 8 µM) |
| --- | --- | --- | --- | --- | --- | --- | --- | --- | --- | --- | --- | --- | --- | --- | --- | --- | --- | --- | --- | --- |
| NCI-H1650 | 0.457 | 0.5 | 0.359 | 0.406 | 0.349 | 0.886 | 1.03 | 0.917 | 0.826 | 0.888 | 0.385 | 0.261 | 0.182 | 0.149 | 0.185 | 0.217 | 0.193 | 0.188 | 0.166 | 0.205 |
| NCI-H1651 | 0.386 | 0.335 | 0.288 | 0.272 | 0.218 | 0.907 | 0.871 | 0.921 | 0.871 | 0.911 | 0.911 | 0.776 | 0.281 | 0.138 | 0.116 | 0.966 | 0.948 | 0.766 | 0.732 | 0.817 |
| NCI-H1666 | 0.612 | 0.6 | 0.531 | 0.565 | 0.49 | 1.33 | 0.838 | 0.938 | 1.04 | 1.23 | 0.382 | 0.307 | 0.305 | 0.159 | 0.211 | 1.04 | 0.926 | 0.858 | 0.855 | 0.907 |
| NCI-H1734 | 0.463 | 0.479 | 0.364 | 0.356 | 0.364 | 0.676 | 0.682 | 0.72 | 0.689 | 0.642 | 1.02 | 0.925 | 0.19 | 0.118 | 0.134 | 0.179 | 0.231 | 0.117 | 0.176 | 0.213 |
| NCI-H1755 | 0.65 | 0.618 | 0.623 | 0.604 | 0.576 | 0.842 | 0.915 | 0.898 | 0.86 | 0.765 | 0.933 | 1.03 | 0.386 | 0.181 | 0.165 | 0.435 | 0.519 | 0.58 | 0.381 | 0.501 |
| NCI-H1792 | 0.318 | 0.317 | 0.192 | 0.203 | 0.237 | 1.03 | 1.01 | 1.03 | 0.996 | 0.951 | 0.806 | 0.599 | 0.484 | 0.182 | 0.175 | 0.386 | 0.401 | 0.443 | 0.483 | 0.355 |
| NCI-H1915 | 0.376 | 0.389 | 0.364 | 0.353 | 0.301 | 1.02 | 0.93 | 0.917 | 0.878 | 0.912 | 0.88 | 0.962 | 0.649 | 0.166 | 0.156 | 0.986 | 0.771 | 0.788 | 0.823 | 0.841 |
| NCI-H1944 | 0.217 | 0.193 | 0.186 | 0.181 | 0.181 | 1.3 | 1.08 | 1.1 | 1.05 | 1.23 | 0.834 | 0.919 | 0.636 | 0.164 | 0.17 | 0.873 | 0.72 | 0.621 | 0.678 | 0.923 |
| NCI-H1975 | 0.437 | 0.43 | 0.437 | 0.413 | 0.394 | 0.919 | 0.91 | 0.886 | 0.96 | 0.949 | 1.13 | 1.02 | 0.308 | 0.152 | 0.169 | 0.292 | 0.257 | 0.185 | 0.198 | 0.12 |
| NCI-H1993 | 0.542 | 0.498 | 0.467 | 0.477 | 0.499 | 0.912 | 0.768 | 0.924 | 0.865 | 0.941 | 0.732 | 0.666 | 0.581 | 0.547 | 0.516 | 0.829 | 0.931 | 0.363 | 0.877 | 0.832 |
| NCI-H2009 | 0.519 | 0.47 | 0.444 | 0.433 | 0.42 | 1.08 | 0.982 | 1.06 | 0.968 | 1.06 | 0.437 | 0.261 | 0.237 | 0.087 | 0.111 | 1.1 | 1.01 | 0.968 | 1.06 | 1.09 |
| NCI-H2023 | 0.447 | 0.413 | 0.381 | 0.27 | 0.145 | 0.839 | 0.678 | 0.747 | 0.74 | 0.747 | 0.352 | 0.133 | 0.0733 | 0.0477 | 0.0781 | 0.728 | 0.759 | 0.698 | 0.656 | 0.66 |
| NCI-H2085 | 0.88 | 0.741 | 0.695 | 0.737 | 0.775 | 0.879 | 0.966 | 0.951 | 0.778 | 0.887 | 0.812 | 0.89 | 0.465 | 0.313 | 0.283 | 0.52 | 0.514 | 0.414 | 0.406 | 0.623 |
| NCI-H2087 | 0.493 | 0.48 | 0.383 | 0.424 | 0.332 | 0.861 | 0.985 | 0.888 | 0.821 | 0.867 | 0.843 | 0.597 | 0.233 | 0.142 | 0.132 | 0.144 | 0.134 | 0.142 | 0.165 | 0.185 |
| NCI-H2126 | 0.591 | 0.525 | 0.537 | 0.503 | 0.492 | 1.07 | 1.04 | 1.05 | 0.992 | 0.987 | 0.724 | 0.762 | 0.406 | 0.241 | 0.261 | 1 | 0.924 | 0.873 | 0.972 | 0.734 |
| NCI-H2170 | 0.429 | 0.446 | 0.402 | 0.38 | 0.41 | 1.32 | 1.15 | 1.16 | 1.09 | 1.23 | 0.258 | 0.301 | 0.25 | 0.208 | 0.228 | 0.655 | 0.924 | 0.595 | 0.546 | 0.722 |
